Source: publication PMC12583704 (Signal Transduction and Targeted Therapy, 2025)
Read-outs that look alike come from different tables or passages of the source.

Columns and labels:
[1] = system: wild-type and drug-resistant mutant Bcr-Abl; settings: ref HQP1351 SJ0003 Protocol; cited from earlier work
[2] = system: c-KIT D816V; set-up: method as in HQP1351 SJ0003 Protocol; settings: ref HQP1351 SJ0003 Protocol; cited from earlier work
[3] = system: TNBC SUM-159; set-up: method as in HQP1351 SJ0003 Protocol; settings: ref HQP1351 SJ0003 Protocol; cited from earlier work
[4] = 269 CML patients; ref HQP1351 SJ0003 Protocol; cited from earlier work
[5] = system: non-SDH-deficient GISTs; test: Phase 1 study: antitumor efficacy per RECIST v1.1 in non-SDH-deficient GIST; type: in vivo, human
Protocol: AEs were evaluated at each follow-up visit: on Days 1, 8, 15, and 22 during Cycles 1 and 2; and on Days 1 and 15 in Cycle 3 and all subsequent cycles, up to 30 days after the final dose. All AEs were graded according to the National Cancer Institute Common Terminology Criteria for Adverse Events v4.03. Clinical laboratory investigations for routine blood examinations and serum chemistry parameters were performed during every cycle (on Day 1), during Cycles 1 and 2 (on Days 8, 15, and 22), and 30 days after the last dose of treatment. Urinalysis, coagulation, cardiac troponin I/T, lipase, amylase, and electrocardiographic evaluations were conducted at baseline; during Cycles 1 and 2 (on Days 1 and 15); during Cycles 3, 5, 7, and 9; every three cycles after Cycle 9 (on Day 1); and 14 days after the last dose of treatment. All patients underwent tumor imaging for response assessment via computed tomography or magnetic resonance imaging at screening and every two cycles (8 weeks) until progression or discontinuation. Target and nontarget lesions were assessed per the Response Evaluation Criteria in Solid Tumors version 1.1 (RECIST v1.1). […]
Antitumor activity was evaluated in patients from the GIST population (including those with SDH-deficient and non-SDH-deficient disease) who had undergone at least one postbaseline disease assessment. […]

[6] = Clinical pharmacokinetics in patients with GIST (noncompartmental); type: in vivo, human; settings: for AUC(0-t) / Cmax / Vd/F / Tmax / half-life: human, plasma; for Vd/F: read-out: Vz/F; for Tmax: median (range)
Protocol: Noncompartmental pharmacokinetic analysis was conducted via Phoenix WinNonlin software (version 6.4).

[7] = system: GIST 48 tumors; set-up: method as in HQP1351 SJ0003 Protocol; settings: ref HQP1351 SJ0003 Protocol, cited from earlier work; for concentration in tumor tissues: 4 hours after the last dose
[8] = system: wild-type GIST; test: SJ-0003 preliminary efficacy in wild-type GIST subjects; type: in vivo, human; settings: 6 wild-type GIST subjects, as of August 2021
Protocol: Guangzhou HealthQuest Pharma Inc. HQP1351 […]
as the dosage for adult subjects after discussion between the inves tigator and the sponsor, and no randomization at 30 mg, 40 mg or 50 mg QOD will be performed.
1.6 Risk-benefit and Ethical Assessment […]
no medicine available for treatment. Given that the National Medical Products Administration encourages the inclusion of adolescents in tumor clinical trials as much as possible, after the preliminary adult data (currently there are safety data and preliminary PK data and efficacy data from more than 300 subjects) are available, it is planned to include adolescent wild -type GIST subjects over 12 years old without standard treatment in clinical trials for adult so as to enable these adolescent GIST patients to have the opportunity to enter clinical trials, obtain their clinical data as soon as possible, and solve the problem of no medicine available for these […]
More information about the known and expected benefits and risks of HQP1351 can be found in the relevant section of the Investigator’s Brochure (IB) for HQP1351. The sponsor, CRA, and investigators will conduct the study in accordance with the study protoc ol, the Good […]
(1 picture or pasted object on this page, not shown here)

[9] = SJ-0003 interim safety analysis
Protocol: Given once every other day, […]
efficacy as primary or secondary endpoints. The data cutoff date for SJ -0002, CC201, and […]
Data were obtained from 36 GIST […]
cohorts (20 mg QOD, 30 mg QOD, 40 mg QOD, and 50 mg QOD), and the safety analysis was based on a combination of the 4 dose groups. […]

[10] = set-up: method as in HQP1351 SJ0003 Protocol; settings: ref HQP1351 SJ0003 Protocol; cited from earlier work
[11] = system: c-KIT D816H; set-up: method as in HQP1351 SJ0003 Protocol; settings: ref HQP1351 SJ0003 Protocol; cited from earlier work
[12] = 20 mg QOD oral, fed, steady state (Cycle 1 Day 27), mean (SD)
[13] = 30 mg QOD oral, fed, steady state (Cycle 1 Day 27), mean (SD)
[14] = 40 mg QOD oral, fed, steady state (Cycle 1 Day 27), mean (SD)
[15] = 50 mg QOD oral, fed, steady state (Cycle 1 Day 27), mean (SD)

Cc1ccc(C(=O)Nc2ccc(CN3CCN(C)CC3)c(C(F)(F)F)c2)cc1C#Cc1cnc2[nH]ncc2c1 [Olverembatinib, 3-[(1H-pyrazolo[3,4-b]pyridin-5-yl)ethynyl]-4-methyl-N-{4-[(4-methylpiperazin-1-yl)methyl]-3-(trifluoromethyl)phenyl]benzamide]
binding [1]: efficiently bind
inhibition rate [2]: 20%-40%
IC50 [3]: 81 ± 25 nM
patients who experienced SAEs [4]: 26%
patients who withdrew from the study due to AEs [4]: 10%
subjects with at least one treatment-emergent adverse event (TEAE) [4]: Approximately 99%
response ([5]; 25 evaluable patients): no response was observed
median PFS ([5]; patients with non-SDH-deficient GISTs, Kaplan-Meier): 2.9 (1.7–5.2) months
Cl/F [6, 12]: 67.2 ± 2.3 L/h
Cl/F [6, 13]: 87.7 ± 56.8 L/h
Cl/F [6, 14]: 79.9 ± 35.3 L/h
Cl/F [6, 15]: 87.5 ± 39.7 L/h
accumulation after multiple-dose administration ([6]; QOD): no significant accumulation
increase in Cmax and AUClast with dose ([6]; dose range of 20 to 50 mg): approximately dose-proportional increase
AUC(0-t) [6, 12]: 228 ± 6.4 ng·h/mL
Cmax [6, 12]: 9.18 ± 0.13 ng/mL
Vd/F [6, 12]: 2143 ± 17.1 L
Tmax ([6]; 20 mg QOD oral, fed, steady state (Cycle 1 Day 27)): 7 h
AUC(0-t) [6, 13]: 307 ± 121 ng·h/mL
Cmax [6, 13]: 12.5 ± 2.9 ng/mL
half-life ([6]; 30 mg QOD oral, fed, steady state (Cycle 1 Day 27), mean (SD), read-out: T1/2 (converted)): 1620 ± 924 min
Vd/F [6, 13]: 2650 ± 877 L
Tmax ([6]; 30 mg QOD oral, fed, steady state (Cycle 1 Day 27)): 7 h
AUC(0-t) [6, 14]: 473 ± 177 ng·h/mL
Cmax [6, 14]: 21.8 ± 9.7 ng/mL
half-life ([6]; 40 mg QOD oral, fed, steady state (Cycle 1 Day 27), mean (SD), read-out: T1/2 (converted)): 1130 ± 384 min
Vd/F [6, 14]: 2130 ± 990 L
AUC(0-t) [6, 15]: 518 ± 174 ng·h/mL
Cmax [6, 15]: 26.5 ± 16 ng/mL
half-life ([6]; 50 mg QOD oral, fed, steady state (Cycle 1 Day 27), mean (SD), read-out: T1/2 (converted)): 1170 ± 408 min
Vd/F [6, 15]: 2350 ± 942 L
Tmax ([6]; 50 mg QOD oral, fed, steady state (Cycle 1 Day 27)): 8 h
half-life ([6]; oral doses ranging from 20 to 50 mg, read-out: mean t1/2): 1130 to 1620 min
concentration in tumor tissues ([7]; 20 mg/kg): 1,379 ng/ml
4 h plasma concentration ([7]; 20 mg/kg): 122 ng/mL
concentration in tumor tissues ([7]; 40 mg/kg): 864 ng/mL
4 h plasma concentration ([7]; 40 mg/kg): 112 ng/mL
concentration in tumor tissues ([7]; 60 mg/kg): 1,774 ng/ml
4 h plasma concentration ([7]; 60 mg/kg): 203 ng/mL
subjects with PD on Day 52 of medication [8]: 1 subject
subjects with SD followed up for more than 11 cycles, up to 31 cycles [8]: 3 subjects
subjects with SD when followed up to Cycle 3 [8]: 1 subject
subjects with PR ([8]; PR in Cycle 9, remained PR to Cycle 13): 1 subject
subjects who experienced fatal AEs ([9]; 36 GIST subjects, assessed as unlikely related to the drug): 11%
TEAE: Abdominal pain ([9]; human, in vivo): 22.2%
TEAE: Alanine aminotransferase increased ([9]; human, in vivo): 25.0%
TEAE: Anemia ([9]; human, in vivo): 41.7%
TEAE: Aspartate aminotransferase increased ([9]; human, in vivo): 33.3%
TEAE: C-reactive protein increased ([9]; human, in vivo): 22.2%
TEAE: Constipation ([9]; human, in vivo): 44.4%
TEAE: Hyperuricemia ([9]; human, in vivo): 33.3%
TEAE: Neutrophil count increased ([9]; human, in vivo): 52.8%
TEAE: asthma ([9]; human, in vivo): 38.9%
TEAE: hypoproteinemia ([9]; human, in vivo): 27.8%
TEAE: serum creatinine increased ([9]; human, in vivo): 25.0%
TEAE: white blood cell count increased ([9]; human, in vivo): 63.9%
subjects who discontinued treatment due to AEs ([9]; human, in vivo): 5 (14%) n (%)
subjects with at least one TEAE ([9]; human, in vivo): 100%
subjects with at least one serious adverse event (SAE) ([9]; human, in vivo): 28%
difference in binding rate to plasma protein at different concentrations or among species [10]: No significant difference
inhibition rate [11]: 20%-40%
